In patent US20080076824A1, “Compounds That Inhibit Replication Of Human Immunodeficiency Virus” (priority 2004, published 2008):
Values joined by “and” are separate entries in the source; they are usually repeats but may differ in a detail not shown here. Equal entries are not always repeated. “Also recorded” adds a separate entry of the source. Structures can show the parent of a compound that is named as a salt. Where two headings read alike, the source gives them in different places. Residues, ends and D or L forms follow the SMILES beside them.

Experiments:
HIV-2(ROD) = experiment: microbe, parasite or virus in culture
Protocol: (§1) MT-4, C8166 or CEM cells (4 to 5×10^5 cells per ml) were suspended in fresh culture medium (RPMI-1640 medium supplemented with 10% fetal bovine serum (FBS) (BioWittaker Europe, Verviers, Belgium), 2 mM L-glutamine and […] NaHCO3). Subsequently, the cells were infected with HIV-1 (IIIB) or HIV-2(ROD) at ˜100 CCID50 (1 CCID50 being the dose infective for 50% of the cell cultures) per ml of cell suspension. Then, 100 μl of the infected cell suspension were transferred to 96-well microplate wells, mixed with 100 μl of the appropriate (5-fold) dilutions of the test compounds and further incubated at 37° C. After 4 to 5 days, giant cell formation was recorded microscopically in the CEM and C8166 cell cultures. The MT-4 cell cultures were treated with trypan blue and the number of viable cells was determined.

HIV-1 (IIIB) [1] = experiment: microbe, parasite or virus in culture
Protocol: as §1

HIV-2 (ROD) = experiment: microbe, parasite or virus in culture; assay type: cell-based
How it was run: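 CEM, C8166 or MT-4 cells (4 to 5×10^5 cells/ml) infected with HIV-2 ROD at ~100 CCID50/ml, then incubated with 5-fold compound dilutions at 37 °C for 4–5 days. Giant cell formation scored microscopically in CEM and C8166 cultures; MT-4 viability counted by trypan blue exclusion.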

HIV (SF2 virus) [2] = experiment: HIV infectivity assay, SF2-infected H9 cells, reverse transcriptase (RT) quantification in supernatant; assay type: cell-based; conditions: for RT mean: mean of replicates; for RT: single replicate; for RT / OD405-620 / OD405-620 - Blank: listed as αHGA, hydrochloride
HIV (SF2 virus) [3] = experiment: HIV infectivity assay, SF2-infected H9 cells, p24 quantification; assay type: cell-based
Protocol: The remaining wells were filled with sterile distilled water. The cell culture plates were incubated at 37° C. and 5% CO2. After four days the medium was changed, after eight days the medium was changed and the cells were collected. After 11 days, the infection was stopped, the cells were viewed in a 10× magnification microscope and 650 μl of each cell supernatant was collected and frozen at −80° C. for further analysis. After five more days, the supernatants were thawed and used in a conventional reverse transcriptase (RT) activity assay (e.g., Roche AMPLICOR MONITOR™) or a p24 quantification assay (e.g., Abbott Laboratories, Chicago). (See U.S. Pat. No. 6,258,932 and U.S. patent application Ser. No. 10/235,158, both of which are hereby expressly incorporated by reference in its entireties).
[…] The cells in the samples were counted and then centrifuged. The cells were then resuspended in 10 ml of RPMI 1640 (containing fetal calf serum) and either […] Metabolite X or 100 μM GPG-NH2. Uninfected control and untreated control samples were also included in the experiment. The samples were then incubated overnight at 37° C. at 5% CO2.
Then, the amount of p24 in the samples was analysed using a conventional p24 detection assay (see U.S. Pat. No. 6,258,932).
Three replicate samples (“replicates”) of uninfected samples and untreated samples were also included in the experiment as controls. The inhibition of HIV replication was monitored by quantifying the levels of p24 using a conventional detection kit.
Three replicates of unninfected samples and untreated samples were also included in the experiment as controls.

Sindbis virus = conditions: read-out: Minimum inhibitory concentration Sindbis virus; Vero; reduces virus-induced cytopathogenicity by 50%
HIV-1 = conditions: 200 and 500 μM IlePyr, in words
[4] = tested on: Herpes simplex virus-1 (KOS); conditions: read-out: Minimum inhibitory concentration Herpes simplex virus-1 (KOS); HEL; reduces virus-induced cytopathogenicity by 50%
HIV-1 (IIIB) [5] = tested on: HIV-1 (IIIB)
Parainfluenza-3 virus = conditions: read-out: Minimum inhibitory concentration Parainfluenza-3 virus; Vero; reduces virus-induced cytopathogenicity by 50%
Vaccinia virus = conditions: read-out: Minimum inhibitory concentration Vaccinia virus; HEL; reduces virus-induced cytopathogenicity by 50%
[6] = 50 μM, fetal calf serum, hydrochloride

Structure (SMILES): NC(=O)C(N)O (stereo not drawn) [AlphaHGA, α-Hydroxy-glycinamide hydrochloride]
- EC50 (HIV-2(ROD); Human immunodeficiency virus 2, C8166, read-out: EC50 (C8166) HIV-2 (ROD)): 125 µM
- EC50 (HIV-2(ROD); Human immunodeficiency virus 2, MT4, read-out: EC50 (MT-4) HIV-2 (ROD)): ≥ 500 µM
- EC50 (HIV-2(ROD); read-out: EC50 (MT-4) HIV-2 (ROD), Table 20): ≥ 500 µM
- EC50 (HIV-1 (IIIB) [1]; Human immunodeficiency virus 1, IIIB, C8166, read-out: EC50 (C8166) HIV-1 (IIIB)): 200 µM
- EC50 (HIV-1 (IIIB) [1]; Human immunodeficiency virus 1, IIIB, MT4, read-out: EC50 (MT-4) HIV-1 (IIIB)): ≥ 500 µM
- EC50 (HIV-1 (IIIB) [1]; Human immunodeficiency virus 1, IIIB, MT4, read-out: EC50 (MT-4) HIV-1(IIIB)): ≥ 500 µM
- EC50 (HIV-2 (ROD); Human immunodeficiency virus 2, CCRF-CEM, read-out: EC50 (CEM) HIV-2 (ROD)): 52 ± 23 µM
- RT mean (HIV (SF2 virus) [2]; 0.5 μM, fetal calf serum): 7539 pg/mL
- RT (HIV (SF2 virus) [2]; 0.5 μM, fetal calf serum): 6982 pg/mL and 9916 pg/mL and 5721 pg/mL
- OD405-620 (HIV (SF2 virus) [2]; 0.5 μM, fetal calf serum): 0.692 and 0.962 and 0.576
- OD405-620 - Blank (HIV (SF2 virus) [2]; 0.5 μM, fetal calf serum): 0.666 and 0.936 and 0.55
- RT mean (HIV (SF2 virus) [2]; 1 μM, fetal calf serum): 4594 pg/mL
- RT (HIV (SF2 virus) [2]; 1 μM, fetal calf serum): 5590 pg/mL and 4482 pg/mL and 3710 pg/mL
- OD405-620 (HIV (SF2 virus) [2]; 1 μM, fetal calf serum): 0.564 and 0.462 and 0.391
- OD405-620 - Blank (HIV (SF2 virus) [2]; 1 μM, fetal calf serum): 0.538 and 0.436 and 0.365
- RT mean (HIV (SF2 virus) [2]; 2 μM, fetal calf serum): 5934 pg/mL
- RT (HIV (SF2 virus) [2]; 2 μM, fetal calf serum): 8003 pg/mL and 6492 pg/mL and 3308 pg/mL
- RT mean (HIV (SF2 virus) [2]; 4 μM, fetal calf serum): 5315 pg/mL
- RT (HIV (SF2 virus) [2]; 4 μM, fetal calf serum): 5340 pg/mL and 4688 pg/mL and 5916 pg/mL
- OD405-620 (HIV (SF2 virus) [2]; 4 μM, fetal calf serum): 0.541 and 0.481 and 0.594
- OD405-620 - Blank (HIV (SF2 virus) [2]; 4 μM, fetal calf serum): 0.515 and 0.455 and 0.568
- RT mean (HIV (SF2 virus) [2]; 8 μM, fetal calf serum): 5300 pg/mL
- RT (HIV (SF2 virus) [2]; 8 μM, fetal calf serum): 6688 pg/mL and 4971 pg/mL and 4242 pg/mL
- OD405-620 (HIV (SF2 virus) [2]; 8 μM, fetal calf serum): 0.665 and 0.507 and 0.44
- OD405-620 - Blank (HIV (SF2 virus) [2]; 8 μM, fetal calf serum): 0.639 and 0.481 and 0.414
- RT mean (HIV (SF2 virus) [2]; 16 μM, fetal calf serum): 1134 pg/mL
- RT (HIV (SF2 virus) [2]; 16 μM, fetal calf serum): 1514 pg/mL and 666 pg/mL and 1221 pg/mL
- OD405-620 (HIV (SF2 virus) [2]; 16 μM, fetal calf serum): 0.189 and 0.111 and 0.162
- OD405-620 - Blank (HIV (SF2 virus) [2]; 16 μM, fetal calf serum): 0.163 and 0.085 and 0.136
- HIV replication at 25 μM (HIV (SF2 virus) [2]; 25 μM): neglible levels
- RT mean (HIV (SF2 virus) [2]; 32 μM, fetal calf serum): 72 pg/mL
- RT (HIV (SF2 virus) [2]; 32 μM, fetal calf serum): 48 pg/mL and 70 pg/mL and 97 pg/mL
- OD405-620 (HIV (SF2 virus) [2]; 32 μM, fetal calf serum): 0.269 and 0.373 and 0.497
- OD405-620 - Blank (HIV (SF2 virus) [2]; 32 μM, fetal calf serum): 0.243 and 0.347 and 0.471
- IC50 (HIV (SF2 virus) [2]; Human immunodeficiency virus 1, H9, 264 h): 6 to 9 µM
- stability to incubation at 37° C. (HIV (SF2 virus) [2]; diluted sample, antiretroviral activity compared with freshly diluted compound): stable to incubation at 37 °C for at least three days
- concentration for appreciable inhibition of HIV replication (HIV (SF2 virus) [2]; whether heat-treated or not): above 8 μM
- concentration for better antiretroviral activity (HIV (SF2 virus) [2]; whether heat-treated or not): above 16 μM
- concentration for very efficient inhibition of HIV replication (HIV (SF2 virus) [2]; whether heat-treated or not): above 30 μM
- OD1 (HIV (SF2 virus) [3]; 50 μM, fetal calf serum, replicates (1)-(3), hydrochloride): 0.183 and 0.232 and 0.147
- OD2 (HIV (SF2 virus) [3]; [6]): 0.185 and 0.216 and 0.139
- conc p24 (HIV (SF2 virus) [3]; [6]): 0.26 ng/mL and 0.33 ng/mL and 0.20 ng/mL
- mean OD (HIV (SF2 virus) [3]; [6]): 0.184 and 0.224 and 0.143
- mean OD - blank (HIV (SF2 virus) [3]; [6]): 0.142 and 0.182 and 0.101
- inhibition of HIV, accumulation of p24, compared with reference (HIV (SF2 virus) [3]; fetal calf serum, hydrochloride): as effectively as GPG-NH2; also recorded: as effectively as G-NH2
- inhibition of HIV replication, accumulation of p24 (HIV (SF2 virus) [3]; human serum, hydrochloride): effective inhibitors of HIV replication in human serum; also recorded: inhibited HIV replication in human serum

Structure (SMILES): NCC(=O)N1CCC[C@H]1C(=O)NCC(N)=O [GPG-NH2, glycylprolylglycinamide] (H-Gly-Pro-Gly-NH2)
- EC50 (Sindbis virus): > 400 µM
- anti-HIV activity in the presence of IlePyr (HIV-1): markedly lost its inhibitory activity
- EC50 (HIV-2(ROD); read-out: EC50 (C8166) HIV-2 (ROD), Table 19): 150 µM
- EC50 (HIV-2(ROD); read-out: EC50 (MT-4) HIV-2 (ROD), Table 19): > 500 µM
- EC50 (HIV-1 (IIIB) [1]; read-out: EC50 (C8166) HIV-1 (IIIB), Table 19): 150 µM
- EC50 (HIV-1 (IIIB) [1]; read-out: EC50 (MT-4) HIV-1 (IIIB), Table 19): > 500 µM
- EC50 [4]: > 400 µM
- EC50 (HIV-2 (ROD); CEM cell cultures, syncytia formation, Table 1, read-out: EC50 HIV-2 ROD): 30 ± 10 µM
- EC50 (HIV-1 (IIIB) [5]; read-out: 50% effective concentration, HIV replication in CEM cell cultures): ~30 µM
- EC50 (HIV-1 (IIIB) [5]; read-out: EC50 (CEM) HIV-1 (IIIB), Table 19): 30 µM
- EC50 (HIV-1 (IIIB) [5]; read-out: EC50 HIV-1 IIIB, CEM cell cultures, syncytia formation, Table 1): 35 ± 8.7 µM
- reverse transcriptase activity in treated samples (HIV (SF2 virus) [2]; 100 μM, fetal calf serum): no reverse transcriptase activity
- inhibition of HIV replication, p24 (HIV (SF2 virus) [3]; 100 μM, presence of fetal calf serum): effectively inhibited HIV replication
- EC50 (Parainfluenza-3 virus): > 400 µM
- EC50 (Vaccinia virus): > 400 µM
